One compound from patent publication US12577232B2, “N-heterocycle substituted tryptamine derivatives and methods of using” (ENVERIC B[…] INC., priority 2024, dated 2026) can be followed below.

Each structure is given as a SMILES string.

This assay addresses T1, 5-HT2A receptor (Homo sapiens, UniProt P28223).
T1 construct: purchased PerkinElmer ES-313-M400UA
Kind of assay: Functional cell-based 5-HT2A assay, antagonism mode (CHO-K1/5-HT2A, 100 nM serotonin, calcium flux). The note with it: CHO-K1/5-HT2A cells, with 100 nM serotonin. From the text:
A variety of 5-HT2A receptor engagement modes have been correlated with positive outcomes in the treatment of neurological disorders. While agonism is associated with a host of favourable effects, antagonizing the 5-HT2A receptor is also an attractive pharmacological approach. For example, antagonism is known to alleviate both dyskinesisa and psychosis in Parkinson's Disorder and holds promise for other psychiatric diseases (Mestre et al., 2013, Expert Opin. Investig. Drugs 22:411-421). Similarly positive outcomes are noted for inverse agonists (Cummings et al., 2014, Lancet, 383:533-540; Roberts, 2006, Curr. Opin. Invest. Drugs 7:653-660). […]
Stimulation of 5-HT2A coupled to the Gq family proteins leads to activation of the phospholipase C (PLC) pathway, ultimately resulting in the accumulation of cytosolic calcium (Cussac et al., Europ. J. Pharmacol., 2008, 594 (1-3), 32-38). […] Kinetic increases in intracellular calcium levels were measured immediately after addition of ligands every 6.4 s for a total of 3 min using the FlexStation 3 multimode microplate reader and SoftMax Pro 7.1 analysis software (Molecular Devices, moleculardevices.com). […] IC50 values were calculated from the normalized data from GraphPad PRISM software. […]
For orientation: A change in cytosolic calcium serves as a functional read-out for many receptors and channels.

T1 sequence (P28223 whole entry): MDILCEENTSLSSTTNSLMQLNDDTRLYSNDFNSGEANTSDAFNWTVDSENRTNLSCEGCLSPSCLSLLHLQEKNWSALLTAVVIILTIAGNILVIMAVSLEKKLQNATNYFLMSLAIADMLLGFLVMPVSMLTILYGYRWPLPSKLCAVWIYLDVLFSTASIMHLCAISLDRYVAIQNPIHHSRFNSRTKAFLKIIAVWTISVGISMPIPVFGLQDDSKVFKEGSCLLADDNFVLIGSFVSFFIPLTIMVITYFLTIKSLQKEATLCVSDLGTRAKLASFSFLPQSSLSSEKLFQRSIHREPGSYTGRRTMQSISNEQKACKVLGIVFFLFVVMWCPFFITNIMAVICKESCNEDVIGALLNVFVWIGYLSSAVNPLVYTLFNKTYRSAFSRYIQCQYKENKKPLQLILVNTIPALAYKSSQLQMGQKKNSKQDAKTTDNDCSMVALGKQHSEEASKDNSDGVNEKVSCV

`CN(C)CCc1c[nH]c2cc(F)cc(N3CCOCC3)c12` [Compound (XV)]: the “engagement at the 5-HT2A receptor, antagonist mode” value was “antagonism”.
